Laboratory results published in ChEMBL document CHEMBL1201862, “PubChem BioAssay data set” (2004).
Activity calls are given as the source filed them.

Tests used:
Cytochrome P450 2D6 = Cytochrome P450 2D6 (Homo sapiens, UniProt P10635);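 further: CYP2D6 member of a cytochrome P450 panel assay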
[1] = biological target: T1, Ubiquitin-conjugating enzyme E2 N (Homo sapiens, UniProt P61088); assay type: functional;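 further: Dose-response confirmation in a TR-FRET assay detecting UBC13-driven polyubiquitin chain formation, inhibition measured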
T1 sequence (P61088 whole entry): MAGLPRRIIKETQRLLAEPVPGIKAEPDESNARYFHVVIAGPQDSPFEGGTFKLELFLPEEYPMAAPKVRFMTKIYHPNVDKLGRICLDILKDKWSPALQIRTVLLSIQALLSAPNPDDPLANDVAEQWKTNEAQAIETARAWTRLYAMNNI

[2] = biological target: T2, Polyadenylate-binding protein 1 (Homo sapiens, UniProt P11940); assay: MLLE binding blockers, Cy5 peptide tracer – biochemical, fluorescence polarization, Cy5-PAM2 peptide, secondary, miRNA deadenylation inhibitor project, dose response (AID 602260); assay type: functional; details: read-out: IC50_Mean
[3] = biological target: T2, Polyadenylate-binding protein 1; assay: MLLE domain peptide-binding blockers, IC50 – biochemical, fluorescence polarization, FITC-PAM2 peptide, dose response (AID 602259); assay type: functional; details: read-out: IC50_Mean
[4] = biological target: T3, Heat shock factor protein 1 (Mus musculus, UniProt P38532); assay: enhancement of HSF1-driven luciferase signal – cell-based, NIH3T3, luminescence, dose retest, confirmation (AID 435004); assay type: functional;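 further: stress induced by proteasome inhibitor MG132 added 30 min after compound; luciferase reporter driven by HSF1 response element in NIH3T3 cells; actives raise luminescence as potentiators of the MG132 stress response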
T3 sequence (P38532 whole entry): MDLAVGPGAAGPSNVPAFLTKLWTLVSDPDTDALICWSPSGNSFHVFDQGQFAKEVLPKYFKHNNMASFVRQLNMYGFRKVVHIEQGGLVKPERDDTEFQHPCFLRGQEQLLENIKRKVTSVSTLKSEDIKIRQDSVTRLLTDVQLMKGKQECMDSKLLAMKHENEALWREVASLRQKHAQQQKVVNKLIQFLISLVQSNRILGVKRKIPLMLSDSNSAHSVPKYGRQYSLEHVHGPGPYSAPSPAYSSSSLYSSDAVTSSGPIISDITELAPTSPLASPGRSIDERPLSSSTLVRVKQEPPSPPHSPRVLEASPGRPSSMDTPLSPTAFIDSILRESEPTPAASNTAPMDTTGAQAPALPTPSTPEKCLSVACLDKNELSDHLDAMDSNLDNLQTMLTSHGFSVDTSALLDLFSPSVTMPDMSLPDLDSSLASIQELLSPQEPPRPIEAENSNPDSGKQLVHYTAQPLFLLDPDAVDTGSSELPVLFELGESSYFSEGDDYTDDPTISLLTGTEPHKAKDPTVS

[5] = viability of uninfected HEp-2 cells – cell-based, HTS, cytotoxicity control for RSV inhibitor project, dose response (AID 2410); assay type: functional; details: human respiratory syncytial virus
Vero = assay: cells; assay type: functional; details: Chlorocebus sabaeus
[6] = reduction of Shn3 3'UTR-driven luciferase in osteoblasts – cell-based, Clone20 osteoblasts, firefly luciferase, cherry-picked, dose response (AID 624132); assay type: functional;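 further: firefly luciferase luminescence from reporter carrying the Shn3 3'UTR in osteoblasts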
[7] = loss of viability in HepG2 cells – cell-based, CellTiter-Glo, cherry-picked, cytotoxicity control for Shn3 inhibitor project, dose response (AID 624134); assay type: functional
[8] = non-specific 3'UTR reporter inhibition in Clone20-Shn3RL – cell-based, Renilla luciferase, cherry-picked, counter-screen for Shn3 inhibitor project, dose response (AID 624133); assay type: functional
Cytochrome P450 3A4 = Cytochrome P450 3A4 (Homo sapiens, UniProt P08684);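 further: CYP3A4 tested as one member of a cytochrome P450 panel screen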
[9] = Trypanosoma cruzi growth suppression in host cells – NIH3T3 host cells, beta-gal luminescence, confirmation (AID 2044); assay type: functional, cell-based;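 further: intracellular parasites grown in NIH/3T3 mouse fibroblasts as host cells; luminescent beta-galactosidase reporter signal from transgenic T. cruzi replicating inside host cells; inhibitors lower the luminescence signal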
[10] = NIH3T3 cell viability loss – ATP luminescence, mouse fibroblasts, counter-screen, dose response (AID 2010); assay type: functional, cell-based;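 further: cells exposed to compound for about 90 hours before reading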
Cytochrome P450 2C19 = Cytochrome P450 2C19 (Homo sapiens, UniProt P33261); assay: Cytochrome panel assay with activity outcomes. Panel member name: p450-cyp2c19 Compounds with AC50 equal or less than 10 uM are considered active; assay type: functional
[11] = luciferase reporter signal suppression in cells – H4 neuroglioma cells, luminescence, dose response (AID 1990); assay type: functional, cell-based
[12] = tested on: Streptococcus sp. 'group A'; assay: Streptococcus pyogenes SK(-)GAS viability under kanamycin – luminescence, BacTiterGlo, confirmation, counter-screen for streptokinase expression inhibitor project, dose response (AID 1900); assay type: functional, organism-based
BJ [13] = assay: BJ-TERT fibroblast viability loss – cell-based, RAS-independent, luminescence, dose response (AID 1933); assay type: functional; details: Homo sapiens
[14] = Luminescence Cell-Based Dose Response HTS to Identify Inhibitors of 5'UTR Stem-Loop Driven Prion Protein mRNA Translation in H4 Neuroglioblastoma Cells. [Related pubchem assays: 1827 (Project Summary), 1813 (Primary HTS)]; assay type: functional
[15] = alpha-synuclein stem-loop luciferase translation blockers – H4 neuroglioma cells, luminescence, confirmation (AID 1988); assay type: functional, cell-based
Streptokinase A = biological target: T4, Streptokinase A (Streptococcus pyogenes serotype M1, UniProt P10520); assay: viability-normalized secreted streptokinase activity reduction – plasminogen activation absorbance, OD405, dose response (AID 1914); assay type: functional, Streptococcus pyogenes M1 GAS;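 further: secreted streptokinase activity via plasminogen activation per viability signal from cell pellet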
T4 sequence (P10520 whole entry): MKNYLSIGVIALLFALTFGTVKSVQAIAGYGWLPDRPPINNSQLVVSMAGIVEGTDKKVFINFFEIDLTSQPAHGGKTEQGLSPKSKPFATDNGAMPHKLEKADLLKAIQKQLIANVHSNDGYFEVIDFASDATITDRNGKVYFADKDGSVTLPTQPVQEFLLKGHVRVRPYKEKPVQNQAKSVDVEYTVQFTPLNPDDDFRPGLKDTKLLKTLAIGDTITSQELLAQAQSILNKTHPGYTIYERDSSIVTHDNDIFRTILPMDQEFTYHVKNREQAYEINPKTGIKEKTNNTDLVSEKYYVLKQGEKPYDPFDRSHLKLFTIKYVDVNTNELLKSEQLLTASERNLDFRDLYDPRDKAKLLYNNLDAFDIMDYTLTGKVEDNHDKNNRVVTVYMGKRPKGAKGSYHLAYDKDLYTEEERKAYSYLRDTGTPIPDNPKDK

BJ [16] = assay: cells; assay type: functional, cell-based; details: Homo sapiens
BJ [17] = assay: BJ-TERT-LT-ST fibroblast viability loss – cell-based, RAS-independent, luminescence, dose response (AID 1935); assay type: functional; details: Homo sapiens;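 further: BJ fibroblasts immortalized with TERT plus LT and ST oncogenes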
[18] = DRD fibroblast viability loss – cell-based, non-viral oncogenic, luminescence, dose response (AID 1934); assay type: functional; details: Homo sapiens
Streptococcus = assay: GAS UMAA2166 growth inhibition – luminescence, BacTiterGlo, counter-screen for streptokinase expression inhibitor project, dose response (AID 1915); assay type: functional, organism-based;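 further: potency for reduction of bacterial viability or growth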

T2 sequence (P11940 whole entry, the tested form may be a part): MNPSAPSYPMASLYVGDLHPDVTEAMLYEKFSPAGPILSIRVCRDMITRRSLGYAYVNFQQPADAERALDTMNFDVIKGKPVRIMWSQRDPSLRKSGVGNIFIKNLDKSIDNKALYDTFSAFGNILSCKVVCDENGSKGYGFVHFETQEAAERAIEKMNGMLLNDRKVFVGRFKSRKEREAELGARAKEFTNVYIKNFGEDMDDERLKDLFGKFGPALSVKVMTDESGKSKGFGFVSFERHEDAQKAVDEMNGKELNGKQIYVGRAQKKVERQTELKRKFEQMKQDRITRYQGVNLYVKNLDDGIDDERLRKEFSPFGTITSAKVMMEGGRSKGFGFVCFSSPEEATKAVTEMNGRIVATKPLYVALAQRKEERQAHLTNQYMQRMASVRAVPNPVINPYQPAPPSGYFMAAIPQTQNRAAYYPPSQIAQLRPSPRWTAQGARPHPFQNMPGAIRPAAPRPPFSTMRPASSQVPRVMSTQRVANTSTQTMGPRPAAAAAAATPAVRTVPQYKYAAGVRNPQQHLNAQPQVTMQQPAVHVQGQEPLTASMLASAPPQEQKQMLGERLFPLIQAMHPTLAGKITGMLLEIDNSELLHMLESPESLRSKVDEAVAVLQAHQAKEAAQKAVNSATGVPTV
Sequence of Cytochrome P450 2D6 (P10635 whole entry): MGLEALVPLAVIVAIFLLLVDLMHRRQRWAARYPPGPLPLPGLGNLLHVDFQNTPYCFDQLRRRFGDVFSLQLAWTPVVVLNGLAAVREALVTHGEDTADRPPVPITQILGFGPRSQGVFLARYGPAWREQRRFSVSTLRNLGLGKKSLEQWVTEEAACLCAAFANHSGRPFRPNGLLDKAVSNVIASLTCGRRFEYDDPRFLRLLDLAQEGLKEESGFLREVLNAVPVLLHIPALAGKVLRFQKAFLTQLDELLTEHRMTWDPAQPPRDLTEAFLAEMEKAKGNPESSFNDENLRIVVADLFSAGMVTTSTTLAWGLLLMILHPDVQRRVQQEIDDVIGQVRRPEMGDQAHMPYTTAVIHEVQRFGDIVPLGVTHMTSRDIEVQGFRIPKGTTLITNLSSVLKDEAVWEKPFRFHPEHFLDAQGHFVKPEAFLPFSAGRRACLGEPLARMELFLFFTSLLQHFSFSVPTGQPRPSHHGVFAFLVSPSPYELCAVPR
Sequence of Cytochrome P450 2C19 (P33261 whole entry): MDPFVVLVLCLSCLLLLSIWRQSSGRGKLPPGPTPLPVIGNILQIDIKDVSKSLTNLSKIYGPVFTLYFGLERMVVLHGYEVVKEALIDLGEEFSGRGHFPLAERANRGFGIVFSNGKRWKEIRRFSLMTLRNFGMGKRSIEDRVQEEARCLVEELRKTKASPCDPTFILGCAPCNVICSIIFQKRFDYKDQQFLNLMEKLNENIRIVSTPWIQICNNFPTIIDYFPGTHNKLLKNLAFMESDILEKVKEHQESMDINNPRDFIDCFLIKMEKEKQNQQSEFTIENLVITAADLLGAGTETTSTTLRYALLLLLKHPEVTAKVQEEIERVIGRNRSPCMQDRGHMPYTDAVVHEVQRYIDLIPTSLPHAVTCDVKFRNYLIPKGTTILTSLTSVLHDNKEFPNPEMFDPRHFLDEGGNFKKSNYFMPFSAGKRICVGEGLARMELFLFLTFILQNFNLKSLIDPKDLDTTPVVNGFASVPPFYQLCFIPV
Sequence of Cytochrome P450 3A4 (P08684 whole entry): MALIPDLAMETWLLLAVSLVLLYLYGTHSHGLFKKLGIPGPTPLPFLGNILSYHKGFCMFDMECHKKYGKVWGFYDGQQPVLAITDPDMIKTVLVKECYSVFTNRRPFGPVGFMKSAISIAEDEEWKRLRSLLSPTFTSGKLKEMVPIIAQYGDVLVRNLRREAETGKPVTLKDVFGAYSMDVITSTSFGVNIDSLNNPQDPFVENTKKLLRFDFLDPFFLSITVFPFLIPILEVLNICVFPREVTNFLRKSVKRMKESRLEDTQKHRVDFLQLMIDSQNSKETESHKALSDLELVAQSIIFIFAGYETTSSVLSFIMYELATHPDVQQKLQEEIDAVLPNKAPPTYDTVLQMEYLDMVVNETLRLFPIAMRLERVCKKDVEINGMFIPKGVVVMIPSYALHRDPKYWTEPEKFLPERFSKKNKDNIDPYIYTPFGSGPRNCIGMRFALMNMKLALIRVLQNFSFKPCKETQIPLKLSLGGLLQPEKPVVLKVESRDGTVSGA

CCN1CCN(S(=O)(=O)c2ccc(Cl)nc2)CC1
AC50 (Cytochrome P450 2D6): 12.6 µM (inconclusive)

CCOC(=O)N1CCN(C(=O)c2ccc3c(c2)N(Cc2ccccc2)CCS3)CC1
IC50 [1]: > 20 µM (inactive)

CC1=NCCc2c1[nH]c1cc(O)ccc21
AC50 (Cytochrome P450 2D6): 7.94 µM (inconclusive)

COc1ccc(C(=S)N2CCN(c3ccccc3Cl)CC2)cc1OC
IC50 [2]: > 66 µM (inactive) | IC50 [3]: > 66 µM (inactive)

CSc1nccc(Nc2ccccc2)c1C#N
IC50 [1]: > 20 µM (inactive)

CSc1ccccc1-n1nnnc1SCC(=O)NCc1cccs1
EC50 [4]: > 260 µM (inactive)

Cn1c(/C=C/c2ccc(Cl)cc2Cl)c([N+](=O)[O-])c(=O)n(C)c1=O
CC50 [5]: 37.5 µM (active) | CC50 (Vero): 20.5 µM (active) | AC50 [6]: 6.87 µM (active) | AC50 [7]: 64.4 µM (active) | AC50 [8]: 8.75 µM (active)

COc1cccc(Cn2c(=O)cnc3cnc(OCc4ccccc4)nc32)c1
AC50 (Cytochrome P450 2D6): 39.8 µM (inconclusive)

Cn1c(Cn2nnc3ccccc32)nnc1SCC(=O)c1ccccc1F
EC50 [4]: > 260 µM (inactive)

CN(C)CCCN(C(=O)c1ccco1)c1nc2ccc(Cl)cc2s1
CC50 (Vero): > 25 µM (active)

CC1=CC(=O)C=C(C)C1=NOC(=O)/C=C\c1ccccc1
EC50 [4]: > 260 µM (inactive)

CSc1nc(C)cc(Nc2ccc(O)c(CN3CCCCC3)c2)n1
AC50 (Cytochrome P450 2D6): 3.16 µM (inconclusive)

O=[N+]([O-])c1cccc(-c2ccc3nnc(SCc4ccccn4)n3n2)c1
EC50 [4]: > 260 µM (inactive)

N#Cc1sc2nc(N3CCCCC3)c3c(c2c1N)CCCC3
CC50 (Vero): > 25 µM (active)

Cc1cnc(CNc2nc(-c3ccccc3Cl)nc3ccccc23)cn1
AC50 (Cytochrome P450 2D6): 25.1 µM (inconclusive) | AC50 (Cytochrome P450 3A4): 7.94 µM (inconclusive)

CCCCCCC1NC(C(=O)O)CS1 (configuration not stated)
IC50 [2]: > 66 µM (inactive) | IC50 [3]: > 66 µM (inactive)

O=C(Nc1ccc2c(c1)CCCN2C(=O)c1ccccc1)c1ccccc1Br
CC50 [5]: 10.5 µM (active) | CC50 (Vero): > 25 µM (active)

CCOC(=O)c1c(C)sc2c1N(C(=O)CN(CC)CC)c1ccccc1S2
EC50 [4]: > 260 µM (inactive)

O=C(CCCN1C(=O)CCC1=O)Nc1ccccc1F
IC50 [2]: > 66 µM (inactive) | IC50 [3]: > 66 µM (inactive)

Cc1cccn2c(=O)c3cc(C(=O)NC4CCCC4)c(=N)n(Cc4ccc(F)cc4)c3nc12
CC50 (Vero): > 25 µM (active)

Cc1cccc(N(C(=O)c2snc(C(N)=O)c2N)C(C(=O)NC2CCCC2)c2ccc(C)o2)c1 (configuration not stated)
IC50 [1]: > 20 µM (inactive)

COc1cc(NC(=O)C2=C(N3CCOCC3)/C(=C\c3ccc(Br)cc3)CC2)cc(OC)c1OC
EC50 [4]: > 260 µM (inactive)

Cc1cc(C)cc(Oc2ccccc2/C=C\C(=O)O)c1
EC50 [4]: > 260 µM (inactive)

Cc1ccc2c(c1)c1nnc(S)nc1n2CCc1ccccc1
EC50 [9]: 2.1 µM (active) | EC50 [10]: > 60 µM (not active) | IC50 [2]: > 66 µM (inactive) | IC50 [3]: > 66 µM (inactive)

Cc1ccc(C(=O)Nc2nnc(C3CCCCC3)s2)o1
EC50 [4]: 44.6 µM (active)

O=c1c2ccccc2nnn1CSc1ccc2c(c1)OCCO2
AC50 (Cytochrome P450 2D6): 28.2 µM (inconclusive)

c1ccc(Nc2ncncc2-c2ccoc2)cc1
AC50 (Cytochrome P450 2C19; read-out: AC50): 15.8 µM (inconclusive) | AC50 (Cytochrome P450 2D6): 25.1 µM (inconclusive)

COC(=O)c1sc(N)c(C(=O)OC)c1CSc1nc2sc3c(c2c(=O)n1C)CCC3
EC50 [4]: > 260 µM (inactive)

C=CCOC(=O)/C(=C\c1cccc2ccccc12)NC(=O)c1ccccc1
AC50 (Cytochrome P450 2D6): 22.4 µM (inconclusive)

Cc1ccc(S(=O)(=O)N[C@H]2COC(=O)C/C=C\[C@@H](C)[C@H](NS(=O)(=O)c3ccc(C)cc3)COC(=O)[C@H](C)NC(=O)C/C=C\[C@H]2C)cc1
AC50 (Cytochrome P450 2C19): inconclusive | AC50 (Cytochrome P450 2D6): 3.98 µM (inconclusive)

Cc1cc(C=O)c(C)n1-c1ccc(NC2CCCC2)c([N+](=O)[O-])c1
AC50 (Cytochrome P450 2D6): 8.91 µM (inconclusive)

C=CCN(C(=O)CCC(=O)Nc1cc(C)on1)C(C(=O)NC(C)(C)C)c1cccc(OC)c1OC (configuration not stated)
EC50 [4]: > 260 µM (inactive)

Cc1nc2[nH]c(=S)[nH]c(=O)c2nc1C
IC50 [2]: > 66 µM (inactive) | IC50 [3]: > 66 µM (inactive)

COc1cc(OCc2ccccc2)c(C(=O)/C=C/c2ccc3c(c2)OCO3)c(OC)c1OC
CC50 (Vero): > 25 µM (active)

COCCCN(CC(=O)O)S(=O)(=O)c1cccc(Cl)c1
EC50 [4]: > 260 µM (inactive)

Cc1nnc(O)c2c(NC(=O)CSc3c(Cl)cccc3Cl)oc(C)c12
IC50 [2]: > 66 µM (inactive) | IC50 [3]: > 66 µM (inactive)

COc1ccc(Cl)cc1C=CC=NNS(=O)(=O)c1ccc(C)cc1
CC50 (Vero): > 25 µM (active)

O=C(N/N=C/c1cc(Br)c(Br)o1)c1cccnc1
IC50 [2]: > 66 µM (inactive) | IC50 [3]: 44.3 µM (inactive)

N#C/C(C[n+]1cn(NC(=O)Nc2ccccc2)cn1)=N/O
EC50 [4]: > 260 µM (inactive)

COc1ccc(-c2c/c(=N\c3nc(-c4ccccc4)c(C)s3)c3ccccc3o2)cc1O
EC50 [11]: 5.76 µM (inconclusive) | EC50 [12]: 4.5 µM (active) | EC50 (BJ [13]): 1.71 µM (active) | EC50 [14]: 5.8 µM (active) | EC50 [15]: 7.32 µM (active) | EC50 (Streptokinase A): 15.5 µM (active) | EC50 (BJ [16]): 3.22 µM (active) | EC50 (BJ [17]): 1.82 µM (active) | EC50 [18]: 1.9 µM (active) | EC50 (Streptococcus): > 150 µM (not active) | CC50 (Vero): 3.22 µM (active)

CC(C)(C)c1ccc(C(=O)N/N=C/c2ccccn2)cc1
EC50 [12]: 9.57 µM (active) | EC50 (Streptokinase A): > 150 µM (not active) | EC50 (Streptococcus): 29.8 µM (active) | IC50 [1]: > 20 µM (inactive)

Cc1ccc(Cc2cnc(NC(=O)c3cccs3)s2)cc1
AC50 (Cytochrome P450 2D6): 15.8 µM (inconclusive)
